Measured values as given in PubChem BioAssay (NCI).
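Step 1: Grow cells in 96-well plates. Step 2: Expose to compound for 48 hours at 5 concentrations. Step 3: Interpolate endpoints linearly; if unreached, use highest concentration. Definition used: TGI = concentration required for complete inhibition of growth.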

Assays:
Experiment in all cases: DTP human tumour cell line panel, 48 h
RXF 393 renal = test system: RXF 393 renal
SK-MEL-2 melanoma = test system: SK-MEL-2 melanoma
MCF7 breast = test system: MCF7 breast
M14 melanoma = test system: M14 melanoma
UACC-257 melanoma = test system: UACC-257 melanoma
OVCAR-5 ovarian = test system: OVCAR-5 ovarian
DU-145 prostate = test system: DU-145 prostate
SF-539 CNS = test system: SF-539 CNS
UO-31 renal = test system: UO-31 renal
A498 renal = test system: A498 renal
HS 578T breast = test system: HS 578T breast
COLO 205 colon = test system: COLO 205 colon
NCI-H23 lung = test system: NCI-H23 lung
SK-MEL-5 melanoma = test system: SK-MEL-5 melanoma
LOX IMVI melanoma = test system: LOX IMVI melanoma

Structure (SMILES)	TGI (RXF 393 renal) [µM]	TGI (SK-MEL-2 melanoma) [µM]	TGI (MCF7 breast) [µM]	TGI (M14 melanoma) [µM]	TGI (UACC-257 melanoma) [µM]	TGI (OVCAR-5 ovarian) [µM]	TGI (DU-145 prostate) [µM]	TGI (SF-539 CNS) [µM]	TGI (UO-31 renal) [µM]	TGI (A498 renal) [µM]	TGI (HS 578T breast) [µM]	TGI (COLO 205 colon) [µM]	TGI (NCI-H23 lung) [µM]	TGI (SK-MEL-5 melanoma) [µM]	TGI (LOX IMVI melanoma) [µM]
N#Cc1nc(CSCc2ccccc2)oc1N	> 100	> 100	> 100	> 100	> 100	> 100	> 100	> 100	> 100	> 100	> 100	> 100	> 100	–	–
CC1(C)CC(=O)/C(=C/C2CCNC2=S)C(=O)N1 (stereo not drawn)	–	> 100	> 100	> 100	> 100	> 100	> 100	> 100	> 100	> 100	> 100	> 100	> 100	> 100	> 100
C=C[C@@H](OCOCC[Si](C)(C)C)[C@@H](CC)OC(CCCOC(=O)C(C)(C)C)OC (stereo partly drawn)	–	52.9	44.9	> 100	> 100	44.4	> 100	–	> 100	> 100	99.5	95.1	> 100	> 100	–
CSc1ccccc1P(c1ccccc1SC)c1ccccc1SC	–	> 100	> 100	> 100	–	> 100	> 100	> 100	> 100	> 100	> 100	–	> 100	> 100	> 100
Cc1ccc(N/C(Sc2ccccc2)=C(/C(Cl)=C(Cl)Cl)[N+](=O)[O-])c(C)c1	–	36.9	28	59.7	38.2	23	> 87.1	45.4	–	53.4	> 100	35.3	68.7	81.7	28.2
N=C(N)C1CN(CCc2cnc[nH]2)C(=O)NC1=O (stereo not drawn)	> 100	–	> 100	> 100	> 100	> 100	> 100	> 100	> 100	> 100	> 100	> 100	> 100	> 100	–
CN1CCC(CNC(=O)CCCCCCCCC(=O)NCC2(c3ccccc3)CCN(C)CC2)(c2ccccc2)CC1	> 100	> 100	> 100	> 100	> 100	> 100	> 100	48.8	> 100	> 100	> 100	> 100	–	> 100	> 100
Cc1c(/C=N/NC(=S)Nc2cccc(Cl)c2)c(=O)n(-c2ccccc2)n1C	29.5	36.7	62.5	40.1	> 100	–	66.9	33	88.7	19.9	33.6	> 100	82.3	> 100	> 100
COC(=O)c1ccc(Oc2nc3ccccc3nc2-c2cccs2)cc1	> 100	> 100	> 100	> 100	> 100	> 100	> 100	> 100	> 100	–	63.3	> 100	74.5	> 100	> 100
c1cc(-c2csc(-c3ccsc3)c2)cs1	> 100	–	48.6	> 100	> 100	> 100	> 100	> 100	> 100	> 100	> 100	> 100	> 100	> 100	> 100
O=C1NCN(c2ccccc2)C12CCN(CCc1ccc3[nH]c(=S)[nH]c3c1)CC2	36.5	41	92.8	58.3	15.6	> 100	> 100	58.4	–	> 100	> 100	30.7	> 100	31.7	36.8
C=CCN1C(=O)CC1N(CC=C)S(=O)(=O)c1ccc(C)cc1 (stereo not drawn)	> 100	–	> 100	> 100	> 100	> 100	> 100	–	> 100	> 100	> 100	> 100	> 100	> 100	> 100
NC(=O)c1cc(-c2ccc(-n3ccnc3)cc2)n[nH]c1=O	> 100	–	> 100	> 100	> 100	> 100	> 100	> 100	> 100	> 100	> 100	> 100	> 100	> 100	–
